Like-named read-outs stand apart in the source and are kept apart here.
How the values were obtained:
[1] = tested on: synaptosomes from the striatal area of rat brain; assay: [3H]-Dopamine release from striatal synaptosomes (continuous perfusion); assay type: cell-based, Sprague-Dawley rats; conditions: for Emax: Rattus norvegicus; for EC50: rat striatal synaptosomes
Description: Dopamine release was measured by preparing synaptosomes from the striatal area of rat brain obtained from Sprague-Dawley rats generally according to the procedures set forth by Nagy et al., J. Neurochem., Vol. 43, pp. 1114-1123 (1984). Striata from 4 rats were homogenized in 2 ml of 0.32M sucrose buffered with 5 mM HEPES (pH 7.5), using a glass-Teflon tissue grinder. The homogenate was diluted to 5 ml with additional homogenization solution and centrifuged at 1,000 x g for 10 min. This procedure was repeated on the new pellet and the resulting supernatant was centrifuged at 12,000 x g for 20 min. A 3 layer discontinuous Percoll gradient consisting of 16 percent, 10 percent and 7.5 percent Percoll in HEPES-buffered sucrose was made with the final pellet dispersed in the top layer. After centrifugation at 15,000 x g for 20 min., the synaptosomes were recovered above the 16 percent layer with a Pasteur pipette, diluted with 8 ml of perfusion buffer (128 mM NaCl, 2.4 mM KCl, 3.2 Mm CaCl2, 1.2 mM KH2PO4, 1.2 mM MgSO4, 25 mM HEPES pH 7.4, 10 mM dextrose, 1 mM ascorbate, 0.01 mM pargyline), and centrifuged at 15,000 x g for 20 min. The new pellet was collected and re-suspended in perfusion buffer. The synaptosome suspension was incubated for 10 min. at 37°C. [^3H]-Dopamine (Amersham, 40-60 Ci/mmol) was added to the suspension to give a final concentration of 0.1 uM, and the suspension was incubated for another 5 min. Using this method, 30 to 90 percent of the dopamine was taken up into the synaptosomes, as determined by scintillation counting following filtration through glass fiber filters soaked with 0.5 percent polyethyleneimine. A continuous perfusion system was used to monitor release following exposure to each ligand. Synaptosomes were loaded onto glass fiber filters (Gelman type A/E). Perfusion buffer was dripped onto the filters (0.2-0.3 ml/min.) and pulled through the filters with a peristaltic pump. Synaptosomes were washed with perfusion buffer for a minimum of 20 min. before addition of the ligand. After the addition of 0.2 ml of a solution containing various concentrations of ligand, the perfusate was collected into scintillation vials at 1 min. intervals and the dopamine released was quantified by scintillation counting. Peaks of radioactivity released above background were summed and the average basal release during that time was subtracted from the total.

[2] = target: T1, ganglionic-type neuronal nicotinic receptors (Rattus norvegicus, UniProt P04757+P12392); assay: cell-based; conditions: for Emax: PC-12, read-out: Ganglion Effect
T1 construct: Intact cells on dishes were used for functional studies; endogenous in cells; host or cells: PC12 rat pheochromocytoma cells
T1 sequence (P04757 26-499): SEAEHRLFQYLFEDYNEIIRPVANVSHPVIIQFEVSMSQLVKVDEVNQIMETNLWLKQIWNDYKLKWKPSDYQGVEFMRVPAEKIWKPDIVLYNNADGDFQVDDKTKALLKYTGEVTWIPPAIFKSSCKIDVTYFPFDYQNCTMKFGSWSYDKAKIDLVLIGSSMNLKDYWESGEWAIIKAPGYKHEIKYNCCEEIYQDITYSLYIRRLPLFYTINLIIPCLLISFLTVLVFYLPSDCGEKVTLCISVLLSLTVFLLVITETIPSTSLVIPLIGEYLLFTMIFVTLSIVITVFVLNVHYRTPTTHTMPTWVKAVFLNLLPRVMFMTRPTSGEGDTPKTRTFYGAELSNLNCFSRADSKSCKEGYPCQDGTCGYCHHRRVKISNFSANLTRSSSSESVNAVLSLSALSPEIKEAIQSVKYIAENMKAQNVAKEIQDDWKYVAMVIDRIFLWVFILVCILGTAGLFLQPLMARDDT
T1 sequence (P12392 21-495): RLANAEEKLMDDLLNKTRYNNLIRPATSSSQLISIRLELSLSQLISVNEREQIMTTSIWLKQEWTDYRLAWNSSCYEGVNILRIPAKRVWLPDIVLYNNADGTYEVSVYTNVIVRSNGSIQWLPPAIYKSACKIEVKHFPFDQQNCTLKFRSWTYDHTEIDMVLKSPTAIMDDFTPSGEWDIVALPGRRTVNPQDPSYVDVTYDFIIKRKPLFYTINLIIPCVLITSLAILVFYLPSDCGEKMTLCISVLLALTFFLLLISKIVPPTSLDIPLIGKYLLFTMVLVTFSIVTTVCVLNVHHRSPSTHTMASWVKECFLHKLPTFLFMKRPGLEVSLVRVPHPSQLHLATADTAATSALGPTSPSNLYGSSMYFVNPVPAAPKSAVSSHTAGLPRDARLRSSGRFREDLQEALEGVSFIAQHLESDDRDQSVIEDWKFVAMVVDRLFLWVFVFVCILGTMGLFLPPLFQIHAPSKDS

[3] = target: T2, muscle-like nicotinic receptors (Homo sapiens, UniProt P02708+P07510+Q07001); assay: cell-based; assay type: cell-based; conditions: for Emax: TE671/RD, read-out: Muscle Effect
T2 construct: Intact cells on dishes were used for functional studies; endogenous in cells; host or cells: TE671/RD human embryonal rhabdomyosarcoma cells
T2 sequence (P02708 21-457): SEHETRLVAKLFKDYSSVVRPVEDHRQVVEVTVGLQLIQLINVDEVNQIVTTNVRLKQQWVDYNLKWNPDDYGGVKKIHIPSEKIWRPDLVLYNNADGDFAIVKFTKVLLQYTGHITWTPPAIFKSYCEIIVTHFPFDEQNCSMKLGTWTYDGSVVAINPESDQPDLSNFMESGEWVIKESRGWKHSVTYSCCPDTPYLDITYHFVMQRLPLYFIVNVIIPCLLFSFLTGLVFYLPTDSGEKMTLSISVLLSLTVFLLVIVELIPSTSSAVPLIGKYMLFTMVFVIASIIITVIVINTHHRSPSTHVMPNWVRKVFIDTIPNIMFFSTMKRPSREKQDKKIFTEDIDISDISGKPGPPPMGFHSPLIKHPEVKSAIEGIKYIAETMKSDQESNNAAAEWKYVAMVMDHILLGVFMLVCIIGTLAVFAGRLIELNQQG
T2 sequence (P07510 23-517): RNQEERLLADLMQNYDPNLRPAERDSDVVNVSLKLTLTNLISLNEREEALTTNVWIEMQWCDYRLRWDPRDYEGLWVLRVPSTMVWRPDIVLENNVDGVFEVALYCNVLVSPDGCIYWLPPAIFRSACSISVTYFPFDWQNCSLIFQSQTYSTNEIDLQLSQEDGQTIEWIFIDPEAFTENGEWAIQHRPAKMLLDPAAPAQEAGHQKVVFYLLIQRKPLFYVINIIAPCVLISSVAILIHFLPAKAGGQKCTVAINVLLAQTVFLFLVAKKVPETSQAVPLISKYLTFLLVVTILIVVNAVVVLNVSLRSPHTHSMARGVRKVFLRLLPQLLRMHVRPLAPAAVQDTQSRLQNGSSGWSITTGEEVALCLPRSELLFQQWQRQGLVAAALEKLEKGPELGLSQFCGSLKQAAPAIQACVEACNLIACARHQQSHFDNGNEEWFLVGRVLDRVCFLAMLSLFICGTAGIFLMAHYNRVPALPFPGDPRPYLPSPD
T2 sequence (P11230 24-501, further chain): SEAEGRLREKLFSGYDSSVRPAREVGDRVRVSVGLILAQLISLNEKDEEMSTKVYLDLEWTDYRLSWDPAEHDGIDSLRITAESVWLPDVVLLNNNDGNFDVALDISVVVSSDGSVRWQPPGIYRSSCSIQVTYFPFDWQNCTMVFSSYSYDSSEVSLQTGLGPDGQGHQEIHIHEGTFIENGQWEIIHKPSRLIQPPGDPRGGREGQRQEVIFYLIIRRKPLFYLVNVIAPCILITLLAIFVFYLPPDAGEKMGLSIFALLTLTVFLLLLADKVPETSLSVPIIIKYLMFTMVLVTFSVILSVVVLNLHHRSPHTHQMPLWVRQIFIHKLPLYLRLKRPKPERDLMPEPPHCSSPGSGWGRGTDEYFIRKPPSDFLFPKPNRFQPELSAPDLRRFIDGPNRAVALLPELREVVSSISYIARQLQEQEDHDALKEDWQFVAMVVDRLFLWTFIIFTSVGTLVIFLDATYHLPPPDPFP
T2 sequence (Q07001 22-517): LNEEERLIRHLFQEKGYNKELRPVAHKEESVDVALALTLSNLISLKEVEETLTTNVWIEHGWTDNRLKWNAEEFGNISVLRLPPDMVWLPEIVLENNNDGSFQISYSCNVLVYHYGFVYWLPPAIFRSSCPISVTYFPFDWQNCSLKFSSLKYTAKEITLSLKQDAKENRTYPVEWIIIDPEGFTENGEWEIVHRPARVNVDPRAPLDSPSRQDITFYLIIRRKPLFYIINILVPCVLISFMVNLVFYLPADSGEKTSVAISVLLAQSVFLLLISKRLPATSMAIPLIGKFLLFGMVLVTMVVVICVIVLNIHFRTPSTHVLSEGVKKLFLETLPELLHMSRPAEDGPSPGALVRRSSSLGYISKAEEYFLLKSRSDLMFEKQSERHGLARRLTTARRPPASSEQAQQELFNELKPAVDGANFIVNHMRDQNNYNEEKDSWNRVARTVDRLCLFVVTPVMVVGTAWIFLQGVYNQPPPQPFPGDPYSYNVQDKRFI

[4] = target: T3, high affinity CNS nicotinic receptors (Rattus norvegicus, UniProt P09483+P12390); assay: biochemical; assay type: binding, Rats (Sprague-Dawley)
T3 construct: Brain membrane preparations were obtained from brain tissue of either males or females; from tissue; host or cells: rat (Sprague-Dawley) brain without cerebellum, membrane preparation
T3 sequence (P09483 31-630): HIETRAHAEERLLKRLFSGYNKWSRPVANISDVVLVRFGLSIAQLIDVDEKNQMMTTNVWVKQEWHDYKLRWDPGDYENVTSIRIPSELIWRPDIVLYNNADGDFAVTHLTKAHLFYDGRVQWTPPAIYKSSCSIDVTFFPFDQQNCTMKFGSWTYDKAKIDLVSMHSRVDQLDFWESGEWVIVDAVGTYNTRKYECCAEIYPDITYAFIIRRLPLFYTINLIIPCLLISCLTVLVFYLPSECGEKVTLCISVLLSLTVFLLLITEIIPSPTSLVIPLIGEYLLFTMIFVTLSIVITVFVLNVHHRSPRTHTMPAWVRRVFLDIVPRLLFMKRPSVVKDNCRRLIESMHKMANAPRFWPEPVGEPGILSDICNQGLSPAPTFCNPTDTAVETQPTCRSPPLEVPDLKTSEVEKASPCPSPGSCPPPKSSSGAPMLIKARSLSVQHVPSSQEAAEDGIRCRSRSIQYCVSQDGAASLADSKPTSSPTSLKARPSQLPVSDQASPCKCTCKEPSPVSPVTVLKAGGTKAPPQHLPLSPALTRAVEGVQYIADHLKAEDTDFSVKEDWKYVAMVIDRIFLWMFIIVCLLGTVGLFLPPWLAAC
T3 sequence (P12390 25-500): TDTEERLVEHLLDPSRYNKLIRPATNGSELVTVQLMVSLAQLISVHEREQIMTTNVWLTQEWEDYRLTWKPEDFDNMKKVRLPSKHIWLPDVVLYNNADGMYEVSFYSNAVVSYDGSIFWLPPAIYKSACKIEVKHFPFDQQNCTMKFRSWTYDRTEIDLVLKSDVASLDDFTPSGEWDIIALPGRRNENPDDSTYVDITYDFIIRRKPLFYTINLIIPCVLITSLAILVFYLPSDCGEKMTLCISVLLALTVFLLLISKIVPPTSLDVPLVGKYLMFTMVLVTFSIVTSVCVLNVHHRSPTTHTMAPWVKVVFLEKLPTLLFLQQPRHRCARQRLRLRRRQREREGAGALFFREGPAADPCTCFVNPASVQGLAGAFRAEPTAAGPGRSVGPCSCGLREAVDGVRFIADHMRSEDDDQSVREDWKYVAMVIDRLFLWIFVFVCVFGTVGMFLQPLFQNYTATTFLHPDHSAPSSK

Structure (SMILES) | Emax [1] | EC50 [1] | Emax [2] | Emax [3] | also measured
NCC/C=C/c1cncnc1 [Sample No. 1, (E)-4-(5-pyrimidinyl)-3-butene-1-amine monofumarate] | 113% | 4360 nM |  |  | 
CNCC/C=C/c1cncnc1 [Sample No. 2, (E)-N-methyl-4-(5-pyrimidinyl)-3-butene-1-amine] | 77% | 5800 nM | 1% | 4% | 
COc1cncc(/C=C/CCN)c1 [Sample No. 3, (E)-4-[3-(5-methoxypyridin)yl] -3-butene-1-amine monofumarate] | 95% | 4000 nM | 0% | 0% | 
CNCCC#Cc1cccnc1 [Sample No. 4, N-Methyl-4-(3-pyridinyl)-3-butyne-1-amine] | 87% | 8350 nM |  |  | Ganglion Effect ([2]; pc12 cells): 59 % nicotine; Muscle Effect ([3]; te671/rd cells): 7 % nicotine; Ki [4]: 58 nM
CNCC/C=C\c1cccnc1 [Sample No. 5, (Z) metanicotine] |  |  |  |  | Dopamine Release Emax [1]: 88 %nicotine
CNCC/C=C/c1ccc(C)nc1 [Sample No. 6, (E)-N-methyl-4-[3-(6-methylpyrindin)yl]-3-butene-1-amine] | 60% | 219 nM | 4% | 2% | 
CNCCCCc1cccnc1 [Sample No. 7, N-methyl-(3-pyridinyl)-butane-1-amine] | 72% |  |  |  | Ki [4]: 910 nM
CNCC/C=C/c1cccnc1 [Sample No. 8, (E)-metanicotine, reference compound] |  |  |  |  | Muscle Effect [3]: 15 % nicotine; Dopamine Release Emax [1]: 80 %nicotine
CN1CCC[C@H]1c1cccnc1 [Sample No. C-1, (S)-(-)-nicotine, reference compound] | 100% | 115 nM |  |  | 

Reference: EP0801527B1 (priority 1995, dated 1996)
